Assay [1] deals with HEK293sieSTAT3(Y640F). The assay is described as follows: drug sensitivity score (DSS), cytotoxicity CellTox Green (DSS (dimensionless)); higher = more cytotoxic; extreme values may be limits of the assay. As to conditions: 72 h; STAT3 variant: Y640F (constitutively active). The method, boiled down: (§1)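 Compounds were acoustically pre-plated in 384-well plates at 5 concentrations spaced by 10-fold dilutions, and HEK293 cells overexpressing wild-type or mutant STAT3 and carrying a STAT3-dependent luciferase reporter were added at 100,000 cells/ml in 20 μl. After 72 hours at 37°C and 5% CO2, the plates were read on a PHERAstar FS for CellTox Green fluorescence (485/520 nm) and then CellTiter-Glo luminescence. A drug sensitivity score derived from dose-response curve area was calculated in Breeze from values normalised to negative and positive control wells.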

The subject of assay [2] is HEK293sieSTAT3(wt). The description is as above. The settings on record: 72 h; STAT3 variant: wild type. In a few lines:
as §1

The test system of assay [3] is HEK293sieSTAT3(Y640F). The assay is described as follows: drug sensitivity score (DSS), viability CellTiter-Glo (DSS (dimensionless)); higher = more growth inhibition; extreme values may be limits of the assay. The settings on record: 72 h; STAT3 variant: Y640F (constitutively active). In a few lines: as §1
(ATP-based viability assays read luminescence as a measure of living cells.)

The test system of assay [4] is HEK293sieSTAT3(wt). The description is as above. The settings on record: 72 h; STAT3 variant: wild type. In a few lines:
as §1

These results are taken from the supplement of paper PMC7108870.

As for `O=C(O)c1ccc(O)c2ncccc12` [IOX-1] (top concentration tested 100000 nM), the drug sensitivity score with HEK293sieSTAT3(Y640F) [1] was 0; in the assay on HEK293sieSTAT3(wt) [2] it was 0; in the assay with HEK293sieSTAT3(Y640F) [3] it was 1.18; in the assay with HEK293sieSTAT3(wt) [4] it was 2.26.

In the case of `N#Cc1c(Oc2ccc(F)c(NC(=O)Cc3cccc(C(F)(F)F)c3)c2)ccc2nc(NC(=O)C3CC3)sc12` [TAK-632] (top concentration tested 10000 nM), the drug sensitivity score is 0 in the assay with HEK293sieSTAT3(Y640F) [1], 0 in the assay on HEK293sieSTAT3(wt) [2], 11.1 in the assay with HEK293sieSTAT3(Y640F) [3] and 8.51 with HEK293sieSTAT3(wt) [4].

Take `C[C@]12CC[C@H](O)CC1=CC[C@@H]1[C@@H]2CC[C@]2(C)C(c3cccnc3)=CC[C@@H]12` [Abiraterone] (top concentration tested 5000 nM): the drug sensitivity score was found to be 0 in the assay with HEK293sieSTAT3(Y640F) [1], 0 with HEK293sieSTAT3(wt) [2], 2.65 in the assay on HEK293sieSTAT3(Y640F) [3] and 1.01 in the assay on HEK293sieSTAT3(wt) [4].

As to `OCCn1cc(-c2cnc3nnn(Cc4ccc5ncccc5c4)c3n2)cn1` (top concentration tested 2500 nM), the drug sensitivity score with HEK293sieSTAT3(Y640F) [1] was 0; in the assay on HEK293sieSTAT3(wt) [2], 0.12; in the assay on HEK293sieSTAT3(Y640F) [3], 1.78; in the assay with HEK293sieSTAT3(wt) [4], 0.

Take `O=C(Nc1ccc2[nH]nc(-c3ccncc3)c2c1)[C@@H]1CCN(CC(=O)N2CCN(c3ccc(-c4ncccn4)cc3)CC2)C1` (top concentration tested 10000 nM): the drug sensitivity score came out at 0.69 with HEK293sieSTAT3(Y640F) [1], 0 in the assay on HEK293sieSTAT3(wt) [2], 3.37 in the assay on HEK293sieSTAT3(Y640F) [3] and 1.44 with HEK293sieSTAT3(wt) [4].

As for `C[C@H]1Oc2cc(cnc2N)-c2c(nn(C)c2C#N)CN(C)C(=O)c2ccc(F)cc21` (top concentration tested 1000 nM), the drug sensitivity score was found to be 0 with HEK293sieSTAT3(Y640F) [1], 0 with HEK293sieSTAT3(wt) [2], 5.03 in the assay on HEK293sieSTAT3(Y640F) [3] and 1.84 in the assay with HEK293sieSTAT3(wt) [4].

Regarding `CN(N=O)C(=O)N[C@@H](C=O)[C@@H](O)[C@H](O)[C@H](O)CO` [Streptozocin] (top concentration tested 10000 nM), the drug sensitivity score in the assay with HEK293sieSTAT3(Y640F) [1] turned out to be 0; with HEK293sieSTAT3(wt) [2], 0; in the assay with HEK293sieSTAT3(Y640F) [3], 0; in the assay with HEK293sieSTAT3(wt) [4] it was 1.93.

On to `CC(=O)Nc1cccc(-n2c(=O)n(C3CC3)c(=O)c3c(Nc4ccc(I)cc4F)n(C)c(=O)c(C)c32)c1` [Trametinib] (top concentration tested 250 nM), for which the drug sensitivity score worked out at 1.69 in the assay with HEK293sieSTAT3(Y640F) [1], 0 with HEK293sieSTAT3(wt) [2], 0 with HEK293sieSTAT3(Y640F) [3] and 0 in the assay with HEK293sieSTAT3(wt) [4].

`CCC1(c2ccc(N)cc2)CCC(=O)NC1=O` (centres undefined) [Aminoglutethimide] (top concentration tested 10000 nM): the drug sensitivity score in the assay with HEK293sieSTAT3(Y640F) [1] stood at 0; with HEK293sieSTAT3(wt) [2], 0; with HEK293sieSTAT3(Y640F) [3], 0.16; in the assay with HEK293sieSTAT3(wt) [4], 0.06.

Consider `Nc1nc(Cl)nc2c1ncn2[C@@H]1O[C@H](CO)[C@@H](O)[C@@H]1F` [Clofarabine] (top concentration tested 10000 nM), for which the drug sensitivity score with HEK293sieSTAT3(Y640F) [1] came out at 3.51; in the assay with HEK293sieSTAT3(wt) [2], 7.13; in the assay on HEK293sieSTAT3(Y640F) [3] it was 18.6; with HEK293sieSTAT3(wt) [4], 20.3.

Regarding `O=C(CCCCCCC(=O)Nc1ccc([C@H]2O[C@@H](CSc3nc(-c4ccccc4)c(-c4ccccc4)o3)C[C@@H](c3ccc(CO)cc3)O2)cc1)NO` [Tubacin] (top concentration tested 10000 nM), the drug sensitivity score was determined as 0.48 in the assay with HEK293sieSTAT3(Y640F) [1], 2.57 in the assay on HEK293sieSTAT3(wt) [2], 4.63 in the assay with HEK293sieSTAT3(Y640F) [3] and 5.53 in the assay on HEK293sieSTAT3(wt) [4].

Take `COc1cc2nccc(Oc3ccc(NC(=O)C4(C(=O)Nc5ccc(F)cc5)CC4)cc3)c2cc1OC` [Cabozantinib] (top concentration tested 1000 nM): the drug sensitivity score in the assay on HEK293sieSTAT3(Y640F) [1] is 0; in the assay with HEK293sieSTAT3(wt) [2] it was 0; in the assay with HEK293sieSTAT3(Y640F) [3], 0.13; in the assay with HEK293sieSTAT3(wt) [4], 1.9.

Turning to `COc1cc(CCc2cc(NC(=O)c3ccc(N4CC(C)NC(C)C4)cc3)n[nH]2)cc(OC)c1` (centres undefined) [AZD4547] (top concentration tested 1000 nM), the drug sensitivity score in the assay with HEK293sieSTAT3(Y640F) [1] was determined as 0; in the assay on HEK293sieSTAT3(wt) [2] it was 0.01; in the assay with HEK293sieSTAT3(Y640F) [3], 1.23; in the assay on HEK293sieSTAT3(wt) [4], 0.43.

Take `COc1c(C)cnc(Cn2cnc3c(Cl)nc(N)nc32)c1C` [BIIB021] (top concentration tested 10000 nM): the drug sensitivity score was 9.95 in the assay with HEK293sieSTAT3(Y640F) [1], 24.2 in the assay with HEK293sieSTAT3(wt) [2], 24.6 with HEK293sieSTAT3(Y640F) [3] and 27.9 in the assay with HEK293sieSTAT3(wt) [4].

With `CCCCCOC(=O)Nc1nc(=O)n([C@@H]2O[C@H](C)[C@@H](O)[C@H]2O)cc1F` [Capecitabine] (top concentration tested 10000 nM), the drug sensitivity score in the assay on HEK293sieSTAT3(Y640F) [1], in the assay with HEK293sieSTAT3(wt) [2], in the assay on HEK293sieSTAT3(Y640F) [3] and in the assay with HEK293sieSTAT3(wt) [4] was 0 in each case.

For `Cc1nc(C(=O)NCC(=O)O)c(O)c2ccc(Oc3ccccc3)cc12` [FG-4592] (top concentration tested 10000 nM), the drug sensitivity score in the assay with HEK293sieSTAT3(Y640F) [1] was 0; with HEK293sieSTAT3(wt) [2] it was 0; in the assay on HEK293sieSTAT3(Y640F) [3], 1.3; in the assay with HEK293sieSTAT3(wt) [4], 2.23.
